pIC50: −log10 of the molar value. Some results are limits rather than exact numbers.

The test system of this assay is NCI-H295R. The assay is described as follows: IC50 (antiproliferative, ATP content). The conditions noted are these: 48 h. The method, boiled down: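 Adrenocortical carcinoma cells were plated at 1500 per well in 1536-well plates in serum-free DMEM with ITS supplement, left overnight, then given library compounds by pin transfer at 8 final concentrations spanning 0.6 nM to 46 µM and held 48 h at 37 °C, 5% CO2. ATP was measured as CellTiter-Glo luminescence after 20 min at room temperature and scaled between vehicle and positive-control wells. A four-parameter logistic model was fitted to each series. The IC50 was taken from these fits, and compounds without a concentration response were recorded as above the top dose.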
`CC(C)(C)NC[C@H](O)COc1ccccc1C1CCCC1.CC(C)(C)NC[C@H](O)COc1ccccc1C1CCCC1.O=S(=O)(O)O`: the pIC50 was under 4.34.
The molecule `O=C2O[C@H](C)C/C=C/C=C/C=C/C=C/[C@H](O[C@@H]3O[C@H](C)[C@@H](O)[C@H](N)[C@@H]3O)C[C@]([C@H]([C@@](O)=O)[C@@H](O)C4)([H])O[C@]4(O)C[C@@H](O)C[C@@]1([H])O[C@@]([H])1/C=C/2` showed a pIC50 of under 4.34.
On to `CCCN1CCC[C@@H]2Cc3n[nH]cc3C[C@H]21`, for which the pIC50 is under 4.34.
Under `Cl.NNc1ccccc1` stands under 4.34.
Molecule `CC(C)[C@@H](N)C(=O)O` showed a pIC50 of under 4.34.
With `Cc1cccc(C)c1OCC(C)N.Cl` (centres undefined), the pIC50 is under 4.34.
As for `CCc1c(C)[nH]c2c1C(=O)C(CN1CCOCC1)CC2` (centres undefined), the pIC50 was under 4.34.
Turning to `NS(=O)(=O)c1cc2c(cc1C(F)(F)F)NC(Cc1ccccc1)NS2(=O)=O` (centres undefined), the pIC50 was under 4.34.
Take `CC(C)CCON=O`: the pIC50 is under 4.34.
Under `O=C1N=C2SCCN2C(=O)C1Cc1ccc(Cl)cc1` (centres undefined) stands under 4.34; under `CCOC(C)=O`, under 4.34.
Molecule `Clc1ccc2c(c1)C(c1ccccc1)=NCc1nncn1-2` had a pIC50 of under 4.34.
As to `CC(C)[C@H](N)C(=O)OCCOCn1cnc2c(=O)[nH]c(N)nc21.Cl`, the pIC50 is under 4.34.
With `CCN(CCCCOC(=O)c1ccc(OC)c(OC)c1)C(C)Cc1ccc(OC)cc1.Cl` (centres undefined), the pIC50 was under 4.34.
Under `CCCCCCCCCCC(CO)CCCCCCCC` (centres undefined) stands under 4.34.
In the case of `CCCCNc1cc(C(=O)O)cc(S(N)(=O)=O)c1Oc1ccccc1`, the negative logarithm of the IC50 (pIC50) is under 4.34.
The molecule `CCN(CC)CCOc1ccc2nc(N(C)C)sc2c1` had a pIC50 of under 4.34.
The molecule `CN(C)CCn1nnnc1SCC1=C(C(=O)O)N2C(=O)[C@@H](NC(=O)Cc3csc(N)n3)[C@H]2SC1.Cl.Cl` showed a pIC50 of under 4.34.
On to `C#C[C@]1(O)CC[C@H]2[C@@H]3CCC4=CC(=O)CC[C@@H]4[C@H]3C(=C)C[C@@]21CC`, for which the pIC50 is under 4.34.
Turning to `Nc1nc(=O)c(Br)c(-c2ccccc2)[nH]1`, the pIC50 was under 4.34.
`CC[C@H]1OC(=O)C[C@@H](O)[C@H](C)[C@@H](O[C@@H]2O[C@H](C)[C@@H](O[C@H]3C[C@@](C)(O)[C@@H](O)[C@H](C)O3)[C@H](N(C)C)[C@H]2O)[C@@H](CC=O)C[C@@H](C)C(=O)/C=C/C(C)=C/[C@@H]1CO[C@@H]1O[C@H](C)[C@@H](O)[C@@H](OC)[C@H]1OC.O=C(O)[C@H](O)[C@@H](O)C(=O)O` showed a pIC50 of under 4.34.
For the molecule `Clc1ccccc1-c1nc(-c2ccncc2)no1`, the pIC50 is under 4.34.
Molecule `CNC(C)C(O)c1ccc(O)cc1.Cl` (centres undefined) showed a pIC50 of under 4.34.
In turn, `[O]=[Bi][O][Bi]=[O]` had a pIC50 of under 4.34.
In turn, `O=C(O)C(Cc1cc(I)c(O)c(I)c1)c1ccccc1` (centres undefined) had a pIC50 of under 4.34.
Molecule `OCCOc1ccccc1` had a pIC50 of under 4.34.
As for `CC(C)NC[C@@H](O)COc1cccc2ccccc12`, the pIC50 was under 4.34.
`CC(C)(Oc1ccc(C2CCCc3ccccc32)cc1)C(=O)O` (centres undefined) gave a pIC50 of under 4.34.
In turn, `CC(C)(C)NCC(O)c1ccc(O)c(CO)c1` (centres undefined) showed a pIC50 of under 4.34.
Molecule `CO[C@@H]1[C@@H](O[C@@H]2O[C@H](C)[C@@H](O[C@H]3C[C@@](C)(O)[C@@H](O)[C@H](C)O3)[C@H](N(C)C)[C@H]2O)[C@@H](CC=O)C[C@@H](C)[C@@H](O[C@@H]2CC[C@H](N(C)C)[C@@H](C)O2)/C=C/C=C/C[C@@H](C)OC(=O)C[C@H]1O` showed a pIC50 of under 4.34.
Under `COCC(=O)Nc1c(I)c(C(=O)NCC(O)CO)c(I)c(C(=O)N(C)CC(O)CO)c1I` (centres undefined) stands under 4.34; under `CNC(=O)Oc1ccccc1C(=O)Nc1ccccc1`, under 4.34; under `Nc1ccc(S(=O)(=O)Nc2ccnn2-c2ccccc2)cc1`, under 4.34.
The molecule `C[C@H]1[C@H]2CC[C@H]3[C@@H]4CC=C5C[C@@H](N(C)C)CC[C@]5(C)[C@H]4CC[C@]23CN1C` gave a pIC50 of under 4.34.
Under `N#CCC(=O)NN` stands under 4.34; under `CNC(=O)Oc1ccc2c(c1)[C@]1(C)CCN(C)[C@@H]1N2C`, under 4.34; under `CCN(CC)C(=O)c1ccc(O)c(OC)c1`, under 4.34.
`NC12CC3CC(CC(C3)C1)C2` showed a negative logarithm of the IC50 (pIC50) of under 4.34.
Turning to `CCC(C)(C)C(=O)O[C@H]1C[C@@H](C)C=C2C=C[C@H](C)[C@H](CC[C@@H]3C[C@@H](O)CC(=O)O3)[C@H]21`, the pIC50 is under 4.34.
`NC(=O)c1ccccc1O` had a pIC50 of under 4.34.
Consider `N[C@@H](CCC(=O)N[C@@H](CS)C(=O)NCC(=O)O)C(=O)O`, for which the pIC50 was under 4.34.
The molecule `CN(C(=O)CN(CCO)CC(=O)N(C)C(C)(C)Cc1ccccc1)C(C)(C)Cc1ccccc1` had a pIC50 of under 4.34.
In turn, `CC1=C(/C=C/C(C)=C/C=C/C(C)=C/C(=O)O)C(C)(C)CCC1` had a pIC50 of under 4.34.
Molecule `COc1ccccc1OCC(O)COC(N)=O` (centres undefined) gave a pIC50 of under 4.34.
Consider `N[C@H](C)[C@@H](O)[C@]1=CC=CC=C1.Cl`, for which the pIC50 was under 4.34.
`N#CC1(N2CCCCC2)CCCCC1` had a pIC50 of under 4.34.
The molecule `CCOC(=O)[C@@](C)(N)Cc1ccc(O)c(O)c1.Cl` gave a pIC50 of under 4.34.
`CC(C)(S)[C@@H](N)C(=O)O` showed a pIC50 of under 4.34.
On to `FC(F)OC(F)(F)C(F)Cl` (centres undefined), for which the pIC50 is under 4.34.
`O=[C@](COC(C)=O)[C@](CC4)(O)[C@]2(C)[C@]4([H])[C@]1([H])CCC([C@@](C=C3)(C)[C@]([H])1[C@@H](O)C2)=CC3=O` gave a pIC50 of under 4.34.
In turn, `COc1ccc(C[C@H](C)NC[C@@H](O)c2ccc(O)c(NC=O)c2)cc1.COc1ccc(C[C@H](C)NC[C@@H](O)c2ccc(O)c(NC=O)c2)cc1.O=C(O)/C=C/C(=O)O` gave a pIC50 of under 4.34.
Consider `NC(=O)NO`, for which the pIC50 is under 4.34.
Under `CC(=O)Nc1ccc(OC(C)=O)cc1` stands under 4.34; under `Oc1cc(Cl)ccc1Oc1ccc(Cl)cc1Cl`, under 4.34; under `O=[C@](O)[C@@H]2CC1=C(CN2C([C@H](C)N[C@@H](CCC3=CC=CC=C3)[C@](OCC)=O)=O)C=C(OC)C(OC)=C1.Cl`, under 4.34.
Molecule `N=C(N)NN.N=C(N)NN.O=S(=O)(O)O` showed a pIC50 of under 4.34.
To `CCCCCC(C=O)=Cc1ccccc1` belongs under 4.34; to `Nc1ncn([C@H]2C[C@H](O)[C@@H](CO)O2)c(=O)n1`, under 4.34; to `CC[C@H](C)[C@H](N)C1=N[C@H](C(=O)N[C@@H](CC(C)C)C(=O)N[C@H](CCC(=O)O)C(=O)N[C@H](C(=O)N[C@H]2CCCCNC(=O)[C@H](CC(N)=O)NC(=O)[C@@H](CC(=O)O)NC(=O)[C@H](Cc3cnc[nH]3)NC(=O)[C@@H](Cc3ccccc3)NC(=O)[C@H]([C@@H](C)CC)NC(=O)[C@@H](CCCN)NC2=O)[C@@H](C)CC)CS1`, under 4.34.
In turn, `COc3ccccc3N2CCN(CCCN\C1=C\C(=O)N(C)C(=O)N1C)CC2` gave a pIC50 of under 4.34.
For the molecule `N=C(N)c1ccc(OCCCCCOc2ccc(C(=N)N)cc2)cc1.O=S(=O)(O)CCO.O=S(=O)(O)CCO`, the pIC50 was under 4.34.
Turning to `Cc1c(Cn2ccnc2)c2ccccc2n1CCC(=O)O`, the pIC50 is under 4.34.
Turning to `CC(C)(C)C(=O)OCOC(=O)[C@@H]1N2C(=O)[C@@H](/N=C/N3CCCCCC3)[C@H]2SC1(C)C.Cl`, the pIC50 was under 4.34.
With `C[C@@H]1O[C@@H](OC[C@H]2O[C@@H](Oc3c(-c4ccc(O)c(O)c4)oc4cc(O)cc(O)c4c3=O)[C@H](O)[C@@H](O)[C@@H]2O)[C@H](O)[C@H](O)[C@H]1O`, the pIC50 is under 4.34.
`Cc1c(OCC(F)(F)F)ccnc1CS(=O)c1nc2ccccc2[nH]1` (centres undefined): the pIC50 is under 4.34.
Take `O=C([C@@H]([C@]1=CC=CC=C1)N=C)N[C@@](C2=O)([H])[C@@](N2[C@H]3[C@@]([O-])=O)([H])SC3(C)C.[Na+]`: the pIC50 was under 4.34.
Regarding `CCN(CC)C(=O)c1cccc(C)c1`, the pIC50 is under 4.34.
With `F\C1=C\N(C(=O)NC1=O)[C@@H]2O[C@H](C)[C@@H](O)[C@H]2O`, the pIC50 is under 4.34.
For the molecule `CC(=O)Nc1ccccc1`, the pIC50 is under 4.34.
In turn, `C[C@]12CC[C@@H]3c4ccc(O)cc4C[C@@H](CCCCCCCCCS(=O)CCCC(F)(F)C(F)(F)F)[C@H]3[C@@H]1CC[C@@H]2O` (some centres undefined) showed a pIC50 of under 4.34.
As for `C#CCOc1ccc2c(C)cc(=O)oc2c1`, the pIC50 was under 4.34.
Take `O=C1C[C@@H]([C@](N[C@@H](CC3=CNC=N3)C(N2[C@]([H])(C(N)=O)CCC2)=O)=O)NC(N1C)=O`: the pIC50 is under 4.34.
On to `CC(C)Cc1ccc(CC(=O)O)cc1`, for which the pIC50 is under 4.34.
On to `CCN1CCN(c2cc3c(cc2F)c(=O)c(C(=O)O)cn3C2CC2)CC1`, for which the pIC50 is under 4.34.
Regarding `CCN(CC)C(=O)C(Cl)=C(C)OP(=O)(OC)OC`, the pIC50 was under 4.34.
Under `CC(C)Cc1ccc([C@@H](C)C(=O)NS(C)(=O)=O)cc1` stands under 4.34; under `CC(C)=O`, under 4.34.
In turn, `NCC(CC(=O)O)c1ccc(Cl)cc1` (centres undefined) showed a pIC50 of under 4.34.
Under `Cc1onc(-c2ccccc2Cl)c1C(=O)N[C@@H]1C(=O)N2[C@@H]1SC(C)(C)[C@@H]2C(=O)[O-].[Na+]` stands under 4.34; under `N[C@@H](Cc1ccc(O)c(O)c1)C(=O)O`, under 4.34.
For `O=C1C[N+]([O-])=C(c2ccccc2)c2cc(Cl)ccc2N1`, the pIC50 is under 4.34.
For `Nc1ccc(S(=O)(=O)c2ccc(N)cc2)cc1`, the pIC50 was under 4.34.
To `O=C(O)c1ccc(S(=O)(=O)N(Cl)Cl)cc1` belongs under 4.34.
`CN(C)CCc1c[nH]c2ccc(CS(=O)(=O)N3CCCC3)cc12` had a negative logarithm of the IC50 (pIC50) of under 4.34.

The values above are taken from the supplement of paper PMC3493320.
